Reference: patent US20150316565A1, “Methodologies and Reagents for Detecting Fibrinolysis and Hyperfibrinolysis” (Haemonetics Corporation, priority 2014, published 2015)

Experiments:
[1] = test system: fibrinolysis in citrated blood with FF reagent (GPIIb/IIIa receptor antagonist); experiment: Functional Fibrinogen TEG assay with/without TXA, blood spiked with increasing t-PA, ΔLY30; set-up: species or system human; conditions: 15 healthy donors, eight t-PA concentrations, FIG. 10
Description: The two TEG cups for each of the fifteen donors at the eight different t-PA concentrations were analyzed on a TEG 5000 device.

[2] = test system: fibrinolysis in citrated whole blood; experiment: Citrated Kaolin (CK) TEG assay, blood spiked with increasing t-PA, LY30; set-up: species or system human; conditions: 15 healthy donors, eight t-PA concentrations, FIG. 9
Description: For the Citrated Kaolin group, citrated blood from each of the donors (e.g., whole blood collected into a tube containing sodium citrate (thereby creating a ratio blood to citrate of approximately 9:1) is collected. For eight different tPA concentrations, 0.5 ml of the blood was gently mixed with Kaolin (a coagulation activator) and increasing concentrations of t-PA to induce fibrinolysis. Aliquots were transferred to 37° C. TEG cups, and the samples were analyzed using the TEG 5000 device, and the LY30 calculated for each of the 15 donors at each of the tPA concentrations. The results plotting the LY30 against the t-PA concentration are shown in FIG. 9.

[3] = test system: fibrinolysis in a blood sample with reduced platelet function; experiment: Functional Fibrinogen (FF) TEG assay with and without tranexamic acid (TXA)

Compound	Detection threshold [tPA] for ΔLY30 [1] [ng/mL]	Detection threshold [tPA] for CK-LY30 [2] [ng/mL]	LY30 ([3]; TXA-treated sample of FIG. 6, amplitude at 74 minutes, the sample not treated with TXA had LY30 approximately 50%)	TEG tracing of the TXA-treated portion compared with the portion not treated with TXA ([3]; blood from a patient with fibrinolysis or hyperfibrinolysis, FIGS. 5 and 6, divergence from about 2 minutes)
tPA: tissue plasminogen activator, converts inactive plasminogen to active plasmin; spiked into blood to induce fibrinolysis	25 to 50	75 to 100	–	–
NC[C@H]1CC[C@H](C(=O)O)CC1 [TXA, tranexamic acid]	–	–	approximately 0.1%	higher amplitude, faster growing TEG tracing
